# Results from patent US10869924B2, “PD-L1 antagonist combination treatments” (MERCK PATENT GMBH, priority 2015, dated 2020).
# Assays:
# MC38 colon carcinoma = assay: Subcutaneous MC38 colon carcinoma model, avelumab, anti-4-1BB and anti-M-CSF (Example 5); format: in vivo, mouse; details: anti-4-1BB 1 mg/kg, anti-M-CSF 15 mg/kg, Avelumab 10 mg/kg, ip, 3 doses 3 to 4 days apart, C57BL/6 mice
# Experimental: (§1) Six (6)- to 8-week old female C57BL/6 mice were purchased from the Jackson Laboratories. All animals were housed in a pathogen free vivarium facility at Rinat and experiments were conducted according to the protocols in accordance with the Institutional Animal Care and Use Committee (IACUC) guidelines.
# The MC38 colon carcinoma cell line was kindly provided by Dr. Antoni Ribas at University of California, Los Angeles, Calif. Cells were cultured in Dulbecco's Modified Eagle's Medium (DMEM) supplemented with 10% fetal bovine serum (FBS), 2 mM L glutamine at 37° C. in 5% carbon dioxide (CO2), and IMPACT-tested for pathogens at Research Animal Diagnostic Laboratory (RADIL) (Columbia, Mo.). Pathogen-free cells growing in an exponential growth phase were harvested and used for tumor inoculation.
# Therapeutic mouse anti-mouse 4-1BB mAb (mouse immunoglobulin G1 [mIgG1]), derived from the parental clone MAB9371 (R&D Systems), was prepared in-house. Avelumab was provided by Merck Serono. Rat anti-mouse M-CSF (clone 5A1), rat IgG1 (clone HRPN) and mIgG1 (clone: MOPC-21) isotype controls were purchased from BioXcell. Human IgG1 isotype was prepared in-house. Anti-4-1BB, avelumab and anti-M-CSF mAbs were diluted to concentrations of 0.1 mg/mL and 1 mg/mL, and 1.5 mg/mL, respectively, in phosphate buffered saline (PBS) (Life Technologies), and dosed at 0.2 mL per mouse intraperitoneally (ip) for 3 doses 3 to 4 days apart.
# C57BL/6 mice were inoculated subcutaneously at the right flank with 0.5-1×10^6 MC38 cells in 0.1 mL of DMEM. When tumors reached an average of ˜60 mm^3 (range 41-93 mm^3), mice were randomized into groups of 10 animals per group, and treatment was started at the same day. Tumor size was measured in two dimensions using a caliper, and the volume was expressed in mm^3 using the formula: V=0.5 L×W^2 where L and W are the long and short diameters of the tumor, respectively. Body weight was recorded weekly.
# Results were expressed as mean±SEM (Table 8). Statistical analyses were performed using GraphPad Prism 6.0. One-way or two-way ANOVA was applied to compare the statistical differences among multiple groups relative to isotype controls. P<0.05 was considered as significant difference.
# B16F10 melanoma = assay: Subcutaneous B16F10 melanoma model, avelumab, anti-4-1BB and anti-OX40 (Example 6); format: in vivo, mouse; details: anti-OX40 3 mg/kg, anti-4-1BB 1 mg/kg, avelumab 20 mg/kg, ip, 3 doses 3 to 4 days apart, C57BL/6 mice
# Experimental: as §1, with “Two murine models were used to evaluate the therapeutic efficacy of combinatorial treatment of anti-OX40 antibody, anti-4-1 BB and Avelumab. Six” for “Six”, “C57BL/6 mice or Balb/C” for “C57BL/6”
# The B16F10 melanoma cell line was purchased from American Type Culture Collection (ATCC). The MC38 colon carcinoma cell line was kindly provided by Dr. Antoni Ribas at University of California, Los Angeles, Calif. Cells were cultured in Dulbecco's Modified Eagle's Medium (DMEM) supplemented with 10% fetal bovine serum (FBS), 2 mM L-glutamine at 37° C. in 5% carbon dioxide (CO2). Cells growing in an exponential growth phase were harvested and used for tumor inoculation.
# Therapeutic mouse anti-OX40 antibodies with either the mIgG1 or the mIgG2a isotype (anti-OX40 mIgG1 and anti-OX40 mIgG2a, respectively) were derived from parental clone OX86 in house. Therapeutic mouse anti-mouse 4-1BB antibody (mouse immunoglobulin G1 [mIgG1]), derived from the parental clone MAB9371 (R&D Systems), was prepared in-house. Avelumab was provided by Merck Serono. Isotype control mIgG1 (clone: MOPC-21) and mIgG2a (C1.18.4) was purchased from BioXcell. Human IgG1 was prepared in-house. Anti-OX40 antibody, anti-4-1BB antibody, and avelumab were dosed at 3 mg/kg, 1 mg/kg and 20 mg/kg in the B16F10 model and 1 mg/kg, 1 mg/kg and 10 mg/kg in the MC38 model, respectively, in phosphate buffered saline (PBS) (Life Technologies), and dosed at 0.2 mL per mouse intraperitoneally (ip) for 3 doses 3 to 4 days apart.
# C57BL/6 mice were inoculated subcutaneously at the right flank with 0.3×10^6 B16F10 cells in 0.1 mL of PBS. Balb/C mice were inoculated subcutaneously at the right flank with 0.5×10^6 MC38 cells in 0.1 mL of PBS. When tumors reached target size, mice were randomized into treatment groups. Treatment was started on the same day as randomization. Tumor size was measured twice weekly in 2 dimensions using a caliper, and the volume was calculated in cubic millimeters using the formula: V=0.5 L×W^2 where L is the longest diameter of the tumor and W is the diameter perpendicular to L. Body weight was recorded weekly.
# Results are summarized in Table 9 (B16F10 melanoma) and Table 10 (MC38 colon carcinoma) below (mean tumor size±SEM). Statistical analyses were performed using GraphPad Prism 6.0. 2-way ANOVA was applied to compare the statistical differences among multiple groups relative to the isotype control or other treatment groups. P<0.05 was considered as significant difference. Tumor measurements are in mm^3.
# [1] = in vivo; cited from earlier work
substance,measurement,setting,value
Avelumab: fully human mAb of the IgG1 isotype that specifically targets and blocks PD-L1,Mean Tumor Size,MC38 colon carcinoma; Day 7 post-tumor inoculation (start of treatment),63 mm^3
same,Mean Tumor Size,MC38 colon carcinoma; Day 10 post-tumor inoculation,127 mm^3
same,Mean Tumor Size,MC38 colon carcinoma; Day 14 post-tumor inoculation,254 mm^3
same,Mean Tumor Size,MC38 colon carcinoma; Day 16 post-tumor inoculation,384 mm^3
same,Mean Tumor Size,MC38 colon carcinoma; Day 18 post-tumor inoculation,523 mm^3
same,Mean Tumor Size,MC38 colon carcinoma; Day 21 post-tumor inoculation,714 mm^3
same,Mean Tumor Size,MC38 colon carcinoma; Day 23 post-tumor inoculation,901 mm^3
same,Mean Tumor Size,B16F10 melanoma; Day 12 post-tumor inoculation (start of treatment),77 mm^3
same,Mean Tumor Size,B16F10 melanoma; Day 15 post-tumor inoculation,236 mm^3
same,Mean Tumor Size,B16F10 melanoma; Day 18 post-tumor inoculation,396 mm^3
same,Mean Tumor Size,B16F10 melanoma; Day 22 post-tumor inoculation,750 mm^3
same,Mean Tumor Size,B16F10 melanoma; Day 25 post-tumor inoculation,1291 mm^3
same,Mean Tumor Size,B16F10 melanoma; Day 29 post-tumor inoculation,2159 mm^3
same,Mean Tumor Size,B16F10 melanoma; Day 32 post-tumor inoculation,2352 mm^3
same,Mean Tumor Size,"B16F10 melanoma; Day 32 post-tumor inoculation, listed as avelumab",2352±264 mm^3
same,half-life,[1],3 to 5 days
